The record followed here is patent publication US6297242A, “N-substituted amidine and guanidine oxazolidinone antibacterials and methods of use thereof” (Ortho-McNeil Pharmaceutical, Inc., priority 2000, dated 2001).

In general, MIC refers to the least concentration at which growth counts as inhibited. Low values mean greater potency, high ones weaker potency.

For one experiment, the system named is S. aureus OC4172. The experiment in a line: NCCLS broth microdilution MIC, S. aureus OC4172. It counts as cell-based. Conditions: Staphylococcus aureus, cation adjusted Mueller-Hinton broth, 35° C., 16-20 hours. On the procedure: (§1) Minimal inhibitory concentration (MIC) has been an indicator of in vitro antibacterial activity widely used in the art. The in vitro antimicrobial activity of the compounds was determined by the microdilution broth method following the test method from the National Committee for Laboratory Standards (NCCLS). This method is described in the NCCLS Document M7-A4, Vol.17, No.2, "Methods for Dilution Antimicrobial Susceptibility Test for Bacteria that Grow Aerobically-Fourth Edition", which is incorporated herein by reference.
(§2) In this method two-fold serial dilutions of drug in cation adjusted Mueller-Hinton broth are added to wells in microdilution trays. The test organisms are prepared by adjusting the turbidity of actively growing broth cultures so that the final concentration of test organism after it is added to the wells is approximately 5×10^4 CFU/well.
(§3) Following inoculation of the microdilution trays, the trays are incubated at 35° C. for 16-20 hours and then read. […] The amount of growth in the wells containing the test compound is compared with the amount of growth in the growth-control wells (no test compound) used in each tray. As set forth in Table 1, compounds of the present invention were tested against a variety of Gram positive and Gram negative pathogenic bacteria resulting in a range of activities, from 1 to ≥128 μg/mL depending on the organism tested.
On the technique in general: Broth dilution looks for growth in wells or tubes with falling amounts of substance.

The subject of a further experiment is E. faecium OC3312. Kind of experiment: NCCLS broth microdilution MIC, E. faecium OC3312. The experiment is classed as cell-based. Conditions: Enterococcus faecium, cation adjusted Mueller-Hinton broth, 35° C., 16-20 hours. On the procedure:
as §1, §2, §3

The test system of a further experiment is MRSA OC2878. The experiment in a line: NCCLS broth microdilution MIC, MRSA OC2878. Conditions: Staphylococcus aureus, cation adjusted Mueller-Hinton broth, 35° C., 16-20 hours. The experiment is classed as cell-based, methicillin-resistant Staphylococcus aureus. On the procedure:
as §1, §2, §3

Converted amounts (≈) assume the structure as drawn.

For the compound `CCCC(=NC#N)NC[C@H]1CN(c2ccc(N3CCOCC3)c(F)c2)C(=O)O1` [Cmpd 5, N-Cyano-N'-[[(5S)-3-[3-fluoro-4-(4-morpholinyl)phenyl]-2-oxo-5-oxazolidinyl]methyl]butyrimidate], the MIC with S. aureus OC4172, in the experiment with E. faecium OC3312 and against MRSA OC2878 was 8 µg/mL (≈ 20.5 µM) throughout.
Regarding `CN=C(NC#N)NC[C@H]1CN(c2ccc(N3CCOCC3)c(F)c2)C(=O)O1` [Cmpd 1, N-Cyano-N'-[[(5S)-3-[3-fluoro-4-(4-morpholinyl)phenyl]-2-oxo-5-oxazolidinyl]methyl]-N"-methylguanidine], the figures for the minimal inhibitory concentration (MIC) with S. aureus OC4172, in the experiment on E. faecium OC3312 and with MRSA OC2878 were 16 µg/mL (≈ 42.5 µM), 32 µg/mL (≈ 85 µM) and 32 µg/mL (≈ 85 µM), respectively.
Regarding `CN(C)C(=NC#N)NC[C@H]1CN(c2ccc(N3CCOCC3)c(F)c2)C(=O)O1` [Cmpd 4, N-Cyano-N'-[[(5S)-3-[3-fluoro-4-(4-morpholinyl)phenyl]-2-oxo-5-oxazolidinyl]methyl]-N", N"-dimethylguanidine], the minimal inhibitory concentration (MIC) was 16 µg/mL (≈ 41 µM) with S. aureus OC4172, 64 µg/mL (≈ 164 µM) against E. faecium OC3312 and 32 µg/mL (≈ 82 µM) with MRSA OC2878.
As for `CC(=O)N=C(C)NC[C@H]1CN(c2ccc(N3CCOCC3)c(F)c2)C(=O)O1` [Cmpd 7, N-Acetyl-N'-[[(5S)-3-[3-fluoro-4-(4-morpholinyl)phenyl]-2-oxo-5-oxazolidinyl]methyl]acetimidate], the MIC in the experiment on S. aureus OC4172 stood at 32 µg/mL (≈ 84.6 µM); in the experiment with E. faecium OC3312, 64 µg/mL (≈ 169 µM); against MRSA OC2878 it was 16 µg/mL (≈ 42.3 µM).
For `CC(=N)NC[C@H]1CN(c2ccc(N3CCOCC3)c(F)c2)C(=O)O1` [Cmpd 6], the MIC is greater than 128 µg/mL against S. aureus OC4172, greater than 128 µg/mL against E. faecium OC3312 and 128 µg/mL (≈ 381 µM) against MRSA OC2878.
As to `CSC(=NC#N)NCC1CN(c2ccc(N3CCOCC3)c(F)c2)C(=O)O1` (stereo in doubt) [Cmpd 3, N-Cyano-N'-[[(5S)-3-[3-fluoro-4-(4-morpholinyl)phenyl]-2-oxo-5-oxazolidinyl]methyl]carbamimidothioic acid, methyl ester], the figures for the MIC against S. aureus OC4172, in the experiment with E. faecium OC3312 and against MRSA OC2878 were 4 µg/mL (≈ 10.2 µM), 8 µg/mL (≈ 20.3 µM) and 4 µg/mL (≈ 10.2 µM), respectively.
Take `CC(=NC[C@H]1CN(c2ccc(N3CCOCC3)c(F)c2)C(=O)O1)NC#N` [Cmpd 2, N-Cyano-N'-[[(5S)-3-[3-fluoro-4-(4-morpholinyl)phenyl]-2-oxo-5-oxazolidinyl]methyl]ethanimidamide]: the results for the MIC against S. aureus OC4172, with E. faecium OC3312 and against MRSA OC2878 were 2 µg/mL (≈ 5.53 µM), 2 µg/mL (≈ 5.53 µM) and 1 µg/mL (≈ 2.77 µM), respectively.
